Measurements: article PMC6429183, “Identification of Compounds That Inhibit Estrogen-Related Receptor Alpha Signaling Using High-Throughput Screening Assays” (Molecules, 2019)
Values joined by “and” are separate entries in the source; they are usually repeats but may differ in a detail not shown here. Equal entries are not always repeated. Where two headings read alike, the source gives them in different places.

What was measured:
[1] = biological target: T1, estrogen-related receptor alpha (ERRα) (Homo sapiens, UniProt P11474); test: ERR reporter (luciferase) antagonist qHTS assay, ERR-HEK293; details: for ERR-HEK293 Follow-Up Efficacy: follow-up screen; for ERR-HEK293 Follow-Up Efficacy / ERR-HEK293 Primary Efficacy: relative to XCT790 = −100%; for ERR-HEK293 Primary Efficacy: primary qHTS, DMSO = 0%
T1 sequence (P11474 1-423): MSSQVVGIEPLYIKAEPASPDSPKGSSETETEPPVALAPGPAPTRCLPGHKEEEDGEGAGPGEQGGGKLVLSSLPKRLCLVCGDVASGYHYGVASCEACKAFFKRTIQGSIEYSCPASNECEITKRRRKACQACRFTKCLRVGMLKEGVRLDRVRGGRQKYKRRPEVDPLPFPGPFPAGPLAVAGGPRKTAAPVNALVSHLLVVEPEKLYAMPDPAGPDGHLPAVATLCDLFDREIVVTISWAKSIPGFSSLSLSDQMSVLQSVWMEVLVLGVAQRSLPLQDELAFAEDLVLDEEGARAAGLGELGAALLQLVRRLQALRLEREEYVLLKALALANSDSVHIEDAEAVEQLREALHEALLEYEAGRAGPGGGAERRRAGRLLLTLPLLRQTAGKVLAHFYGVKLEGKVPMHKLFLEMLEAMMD

[2] = tested on: PGC/ERR reporter HEK293 cells; test: CellTiter-Fluor cell viability assay multiplexed with PGC/ERR reporter assay; assay type: cell-based; details: for EC50: Homo sapiens
Description: (§1) ERR or PGC/ERR reporter HEK293 cells suspended in culture medium without puromycin were dispensed at 2500 cells/5 μL/well in tissue culture–treated 1536-well white assay plates (Greiner Bio-One North America, Monroe, NC, USA) using a Thermo Scientific Multidrop Combi (ThermoFisher Scientific, Inc.). […] After the cells were incubated at 37 °C with 5% CO2 for 6 h, 23 nL of compounds or control, XTC790, was transferred into the assay plates using a Wako Pintool station (Wako Automation, San Diego, CA, USA). The assay plates were incubated at 37 °C for 18 h, followed by the addition of 5 μL ONE-Glo luciferase reagent (Promega, Madison, WI, USA) using a Flying Reagent Dispenser (Aurora Discovery, Carlsbad, CA, USA). After 30 min of incubation at room temperature, the luminescence intensity of the assay plates was quantified using a ViewLux plate reader (PerkinElmer, Shelton, CT, USA). The assays were performed three times for each compound concentration. These ERR and PGC/ERR reporter assays were multiplexed with the CellTiter-Fluor Cell Viability Assay (Promega), a fluorescence-based cell viability assay, to assess compound cytotoxicity.
The qHTS data were analyzed as described previously. Each titration point was normalized relative to the positive control compound (XCT790 = −100%) and DMSO-only wells (0%) according to the following equation: % Activity = [(Vcompound − VDMSO)/(VDMSO − Vpos)] × 100, where Vcompound denotes the compound well values, Vpos denotes the median value of the positive control wells, and VDMSO denotes the median values of the DMSO-only wells. The DMSO-only compound plates at the beginning and end of the compound plate stack were used to correct the data set by applying an in-house pattern correction algorithm. The half maximum inhibition values (IC50) for each compound and maximum response (efficacy) values were obtained by fitting the concentration-response curves of each compound to a four-parameter Hill equation [91]. Compounds were designated as Class 1–4 according to the type of concentration–response curve observed. For each reading, the activity outcome of a test compound was first categorized by the average curve rank from the triplicate runs and the reproducibility calls. The final activity outcome of each compound was based on the ERR antagonist readout activity and cell viability counter screen.

[3] = tested on: cytochrome c; test: qRT-PCR mRNA expression of ERR downstream gene cytochrome c; assay type: cell-based; details: ERR reporter cells, vs GAPDH, DMSO = 0%
Description: (§2) Total RNA was isolated from treated ERR reporter cells using an RNeasy Mini Kit (Qiagen, Germantown, MD, USA), homogenized using a QIAshredder (Qiagen), and reverse transcribed with a High-Capacity RNA-to-cDNA™ Kit (ThermoFisher Scientific, Inc.) following the manufacturers’ instructions. Expression of ERRα, COX8α, IDH3α, PPARα, COX4I1, and cytochrome c genes was normalized against GAPDH. All primers were purchased from ThermoFisher Scientific, Inc. Real-time PCR assays were performed in 384-well plates on a QuantStudio 5 (Applied Biosystems, Foster City, CA, USA) with TaqMan™ Gene Expression Master Mix (ThermoFisher Scientific, Inc.). Induction values were calculated using the equation: Fold = 2^ΔΔCt, where ΔCt represents the differences in cycle threshold numbers between each of the target genes and GAPDH, and ΔΔCt represents the relative change in these differences between control and treatment groups. Experimental data are presented as a mean of triplicate determinations ± SD. Statistical comparisons were made by t-test, while the statistical significance was set at p values of <0.05 (light blue), <0.01 (medium blue), and <0.001 (dark blue).

[4] = tested on: ERR reporter HEK293 cells; test: CellTiter-Fluor cell viability assay multiplexed with ERR reporter assay; assay type: cell-based; details: for EC50: Homo sapiens, HEK293
Description: as §1
The qHTS data were analyzed as described previously. […] The DMSO-only compound plates at the beginning and end of the compound plate stack were used to correct the data set by applying an in-house pattern correction algorithm. The half maximum inhibition values (IC50) for each compound and maximum response (efficacy) values were obtained by fitting the concentration-response curves of each compound to a four-parameter Hill equation [91]. […] For each reading, the activity outcome of a test compound was first categorized by the average curve rank from the triplicate runs and the reproducibility calls. The final activity outcome of each compound was based on the ERR antagonist readout activity and cell viability counter screen.

[5] = tested on: IDH3α; test: qRT-PCR mRNA expression of ERR downstream gene IDH3α; assay type: cell-based; details: ERR reporter cells, vs GAPDH, DMSO = 0%
Description: as §2

[6] = biological target: T2, ERRα with PGC-1α (PGC/ERR pathway) (Homo sapiens, UniProt P11474); test: PGC/ERR reporter (luciferase) qHTS assay, PGC/ERR-HEK293; details: for PGC/ERR-HEK293 Follow-Up Efficacy: follow-up screen; for PGC/ERR-HEK293 Follow-Up Efficacy / PGC/ERR-HEK293 Primary Efficacy: negative = antagonism, positive = agonism; for PGC/ERR-HEK293 Primary Efficacy: primary qHTS
T2 sequence (P11474 1-423): T1 sequence (P11474 1-423)
Description: The ERR reporter HEK293 cells were cultured in high glucose DMEM medium (ThermoFisher Scientific, Inc., Waltham, MA, USA) supplemented with 10% fetal bovine serum (FBS; ThermoFisher Scientific, Inc.), 4 mM of L-glutamine (ThermoFisher Scientific, Inc.), 1 mM of sodium pyruvate (ThermoFisher Scientific, Inc.), 100 U/mL of penicillin and 100 mg/mL of streptomycin (ThermoFisher Scientific, Inc.). PGC/ERR reporter HEK293 cells were cultured in the same medium as the ERR reporter HEK293 cells with an additional 1 μg/mL puromycin (ThermoFisher Scientific, Inc.) as the selection marker for PGC-1α expression.
The DMSO-only compound plates at the beginning and end of the compound plate stack were used to correct the data set by applying an in-house pattern correction algorithm [90]. The half maximum inhibition values (IC50) for each compound and maximum response (efficacy) values were obtained by fitting the concentration-response curves of each compound to a four-parameter Hill equation [91]. […] For each reading, the activity outcome of a test compound was first categorized by the average curve rank from the triplicate runs and the reproducibility calls. The final activity outcome of each compound was based on the ERR antagonist readout activity and cell viability counter screen.

[7] = tested on: COX8α; test: qRT-PCR mRNA expression of ERR downstream gene COX8α; assay type: cell-based; details: 20 µM; ERR reporter cells; vs GAPDH, DMSO = 0%
Description: as §2

[8] = ERR-HEK293 Follow-Up EC50, follow-up (confirmation) screen, mean ± SD, triplicate
[9] = ERR-HEK293 Primary EC50, primary qHTS, 18 h, 15 concentrations, mean ± SD, triplicate
[10] = PGC/ERR-HEK293 Follow-Up EC50, follow-up screen, mean ± SD, triplicate
[11] = PGC/ERR-HEK293 Primary EC50, primary qHTS, 18 h, mean ± SD, triplicate

SMILES: COc1ccc2cc3[n+](cc2c1OC)CCc1cc2c(cc1-3)OCO2 [Berberine]
- EC50 [1, 8]: 3290 ± 2270 nM
- EC50 [1, 9]: 3160 ± 713 nM
- ERR-HEK293 Follow-Up Efficacy [1]: −92.0 ± 16.0%
- activity in the ERR assay ([1]; in words): potent antagonists
- ERR-HEK293 Primary Efficacy [1]: −88.4 ± 7.45%
- EC50 ([2]; HEK293, follow-up screen, read-out: PGC/ERR-HEK293 Follow-Up Viability EC50 (converted)): 17300 nM
- EC50 ([2]; HEK293, primary qHTS, read-out: PGC/ERR-HEK293 Primary Viability EC50 (converted)): 17300 nM
- Percent inhibition of mRNA gene expression, Cytochrome C ([3]; 20 µM): 46.2 ± 2.61%
- EC50 ([4]; follow-up screen, viability, read-out: ERR-HEK293 Follow-Up Viability EC50 (converted)): 12700 nM
- EC50 ([4]; primary qHTS, viability counter screen, read-out: ERR-HEK293 Primary Viability EC50 (converted)): 12800 nM
- Percent inhibition of mRNA gene expression, IDH3α ([5]; 20 µM): 15.1 ± 2.97%
- EC50 [6, 10]: 8930 ± 4010 nM
- EC50 [6, 11]: 6130 ± 1710 nM
- PGC/ERR-HEK293 Follow-Up Efficacy [6]: −87.4 ± 20.8%
- activity in the ERR/PGC assay ([6]; in words): antagonism
- PGC/ERR-HEK293 Primary Efficacy [6]: −77.3 ± 14.6%
- Percent inhibition of mRNA gene expression, COX8α [7]: 5.15 ± 0.17%

SMILES: Nc1ncn([C@H]2C[C@H](O)[C@@H](CO)O2)c(=O)n1 [Decitabine]
- Percent inhibition of mRNA gene expression, IDH3α ([5]; 2 µM): 5.79 ± 45.6%

SMILES: Cc1nn(C)c(Oc2ccccc2)c1C=NOCc1ccc(C(=O)OC(C)(C)C)cc1 [Fenpyroximate]
- EC50 [1, 8]: 6.99 ± 3.28 nM
- EC50 [1, 9]: 4.52 ± 0.577 nM
- ERR-HEK293 Follow-Up Efficacy [1]: −89.6 ± 6.08%
- EC50 ([1]; potency, ERR antagonist assay, primary screen): 4.5 nM
- ERR-HEK293 Primary Efficacy [1]: −67.1 ± 9.31%
- Percent inhibition of mRNA gene expression, Cytochrome C ([3]; 7.5 nM): 5.28 ± 4.56%
- EC50 [6, 10]: 18.6 ± 21 nM
- EC50 [6, 11]: 8.75 ± 0.572 nM
- PGC/ERR-HEK293 Follow-Up Efficacy [6]: −56.2 ± 10.5%
- EC50 ([6]; potency, ERR/PGC antagonist assay, primary screen): 8.8 nM
- PGC/ERR-HEK293 Primary Efficacy [6]: −36.8% and −36.8 ± 2.17%

SMILES: CO/N=C(/C1=NOCCO1)c1ccccc1Oc1ncnc(Oc2ccccc2Cl)c1F [Fluoxastrobin]
- Percent inhibition of mRNA gene expression, Cytochrome C ([3]; 7 µM): 25.5 ± 7.81%
- Percent inhibition of mRNA gene expression, IDH3α ([5]; 7 µM): 13.3 ± 2.44%

SMILES: CC[C@@]1(O)C(=O)OCc2c1cc1n(c2=O)Cc2c-1nc1ccccc1c2/C=N/OC(C)(C)C [Gimatecan]
- EC50 ([1]; ERR-HEK293 Follow-Up EC50): 44.2 nM
- EC50 ([1]; ERR-HEK293 Primary EC50): 49.7 nM
- ERR-HEK293 Follow-Up Efficacy [1]: −145 ± 16.0%
- ERR-HEK293 Primary Efficacy [1]: −117 ± 14.5%
- PGC/ERR-HEK293 Follow-Up Viability EC50 ([2]; follow-up screen): Inactive
- PGC/ERR-HEK293 Primary Viability EC50 ([2]; primary qHTS): Inactive
- ERR-HEK293 Follow-Up Viability EC50 ([4]; follow-up screen, viability): Inactive
- ERR-HEK293 Primary Viability EC50 ([4]; primary qHTS, viability counter screen): Inactive
- EC50 ([6]; PGC/ERR-HEK293 Follow-Up EC50): 3340 nM
- EC50 ([6]; PGC/ERR-HEK293 Primary EC50): 2530 nM
- PGC/ERR-HEK293 Follow-Up Efficacy [6]: −130 ± 20.6%
- PGC/ERR-HEK293 Primary Efficacy [6]: −115 ± 2.20%
